Results taken from patent US7989495B2, “Compositions and methods for inhibiting NF-κB mediated tumorigenicity and adhesion dependent survival of cancer cells” (University of Utah Research Foundation, priority 2002, dated 2011).

How the values were obtained:
Assay type in all cases: cell-based
[1] = system: transiently suspended Caco-2 cells; experiment: Apoptosis (annexin V) of transiently suspended cells allowed to readhere; settings: treated
Description: Single cell suspensions were plated at 100,000 cells per well in 24-well plates in media containing DMSO, BAY 11-7082, BAY 11-7085, or MG-132 for 8-24 hours in an incubator. Alternatively, DMSO, BAY 11-7082, BAY 11-7085, or MG-132 were added to cells that were confluent and adherent for several days. The nonadherent cells were aspirated off with the media and spun for 3 minutes at 2,000 rpm in 15 ml polypropylene tubes. The adherent cells were washed twice with PBS, dispersed in trypsin, and spun down for 3 minutes at 2,000 rpm in 15 ml polypropylene tubes. The nonadherent and adherent cells were resuspended in 1× binding buffer (10 mM HEPES/NaOH, pH 7.4, 140 mM NaCl, and 2.5 mM CaCl2) to a final concentration of 10^6 cells/ml. […] 400 μl of binding buffer was added to each tube and the cells were analyzed by flow cytometry immediately. The percent of apoptosis was determined as the percent of annexin V-positive, propidium iodide-negative cells of the total cells counted.
Since trypsin can activate protease-activated receptor-2 in colon cancer cell lines, which then results in increased cell proliferation, (Darmoul et al., 2001) NF-κB activation was determined in adherent and confluent DLD-1, HCT-116, Caco-2 and HT-29 cells that were removed from plastic dishes by trypsin or scraping. […]

HT-29 cells = experiment: One-hour cell adhesion assay (crystal violet); settings: HT-29 pretreated three days (3 hours elsewhere in the source) with various concentrations
Description: The data points represent the average percent of annexin V-positive, propidium iodide-negative cells (of the total cells counted) from triplicate experiments. The error bars represent the standard error of the means. […] The results shown are a graphic representation of individual flow cytometry results expressed as the percentage of cells that were annexin V-positive of those that excluded propidium iodide. […] An immunoblot of the lysates for cleaved PARP was performed. Each lane represents equal total protein concentrations. […] The cells were allowed to adhere to plastic dishes for 1 hour after which they were washed gently in PBS and stained with crystal violet. The crystal violet stained cells were solubilized in deoxycholate and the absorbance detected in a spectrophotometer at 590 nm. The adherent cells were expressed as a fraction of the controls Each data point represents the average of triplicate experiments and the error bars the standard errors of the means.
Even though BAY 11-7085 induced a loss of cell adhesion, it was important to show whether HT-29 cells were actually susceptible to anoikis.

[2] = system: HT-29 colon cancer cell line; experiment: Cell proliferation assay (crystal violet, 590 nm); settings: 10 μM, cultured 8 days
Description: DLD-1, HCT-116, and HT-29 colon cancer cell lines were obtained from the ATCC collection and were cultured in Dulbecco's Modification of Eagle's Medium supplemented with 10% fetal bovine serum, glutamine, penicillin, and streptomycin. 293 cells stably transfected with COX-2 (293-COX-2) under the control of a ponasterone sensitive promoter were cultured in Dulbecco's Modification of Eagle's Medium supplemented with 10% fetal bovine serum, 400 μg/ml of zeocin, 400 μg/ml of G418, glutamine, penicillin, and streptomycin. For induction of COX-2 protein expression, 293-COX-2 cells were cultured for 48 hours in media supplemented with 1 μg/ml of ponasterone. All cells were cultured at 37° C. in a humidified incubator with a 5% CO2 atmosphere.
For the cell proliferation assay, cells were dispersed and plated at 40,000 cells/well in 96-well dishes. At various days in culture, the cells were gently washed twice with 100 μl/well of ice-cold blocking buffer (1% radioimmunoassay grade BSA in PBS) and twice with 100 μl/well of ice-cold PBS. The cells were fixed for 10 min in 100% ice-cold methanol (100 μl/well), then allowed to air-dry. The cells were stained with 100μl/well of 0.1% crystal violet in H2O for 10 minutes, then washed gently four times with dd H20 and four times with PBS. The plates were then air-dried completely. The stained cells were then solubilized in 1% sodium deoxycholate, and the plates read at 590 nm in a spectrophotometer. The absorption at 590 nm is proportional to the number of attached cells.

SMILES: CC(C)(C)c1ccc(S(=O)(=O)/C=C/C#N)cc1 [BAY 11-7085, (2E)-3-[4-(tertiarybutylphenyl)sulfonyl]-2-propenenitrile]
- BAY 11-7085-induced apoptosis during readhesion [1]: showed a moderate increase
- inhibition of cell adhesion (HT-29 cells): significant and rapid inhibition of cell adhesion at high concentrations
- inhibition of cell proliferation [2]: greatly inhibited cell proliferation
